The numbers were not newly measured in article PMC7686313, “Phase 1 study of mTORC1/2 inhibitor sapanisertib (TAK-228) in advanced solid tumours, with an expansion phase in renal, endometrial or bladder cancer” (British Journal of Cancer, 2020), which cites them from elsewhere.

Series [1] has as its system refractory clear-cell RCC. Also noted: method as in earlier work. Conditions: 10 mg QD; cited from earlier work.
For a further series, the system named is RCC. As to conditions: patients with RCC; cited from earlier work.

On to `CO[C@H]1C[C@@H]2CC[C@@H](C)[C@@](O)(O2)C(=O)C(=O)N2CCCC[C@H]2C(=O)O[C@H]([C@H](C)C[C@@H]2CC[C@@H](OCCO)[C@H](OC)C2)CC(=O)[C@H](C)/C=C(\C)[C@@H](O)[C@@H](OC)C(=O)[C@H](C)C[C@H](C)/C=C/C=C/C=C/1C` [everolimus, reference compound], for which the ORR in series [1] was 13%.

On to `CO[C@H]1C[C@@H]2CC[C@@H](C)[C@@](O)(O2)C(=O)C(=O)N2CCCC[C@H]2C(=O)O[C@H]([C@H](C)C[C@@H]2CC[C@@H](OC(=O)C(C)(CO)CO)[C@H](OC)C2)CC(=O)[C@H](C)/C=C(\C)[C@@H](O)[C@@H](OC)C(=O)[C@H](C)C[C@H](C)/C=C/C=C/C=C/1C` [temsirolimus], for which the ORR in the series with RCC is recorded as 8.6%.
